According to patent publication US5698522A, “6-position modified decapeptide LHRH antagonists” (Abbott Laboratories, priority 1995, dated 1997):
Where a SMILES comes first, the peptide text is derived from it. Side-chain parts run from the residue outwards. [ ]: non-standard residue; d: D form. The star is where a group is joined. ξ: configuration not given here. ξTetrahydrofuran2carbonyl = O=C(C1CCCO1)*; dPhe(4-Cl) = N[C@H](Cc1ccc(Cl)cc1)C(=O)O; d2Nal = N[C@H](Cc1ccc2ccccc2c1)C(=O)O; Lys(iPr) = CC(C)NCCCC[C@H](N)C(=O)O; NMeY = CN[C@@H](Cc1ccc(O)cc1)C(=O)O; Thiophene2carbonyl = O=C(c1cccs1)*; d3Pal = N[C@H](Cc1cccnc1)C(=O)O; Salicyloyl = O=C(c1ccccc1O)*; Nicotinoyl = O=C(c1cccnc1)*; X1 = O=C(c1cc2ccccc2cc1O)*; 2Furoyl = O=C(c1ccco1)*; Ahx = NCCCCCC(=O)O; GABA = NCCCC(=O)O; azaGly = NNC(=O)O; βAla = NCCC(=O)O; Sar = CNCC(=O)O

Target: T1, LHRH receptor (Rattus norvegicus, UniProt P30969)
T1 construct: endogenous in cells
T1 sequence (P30969 1-327): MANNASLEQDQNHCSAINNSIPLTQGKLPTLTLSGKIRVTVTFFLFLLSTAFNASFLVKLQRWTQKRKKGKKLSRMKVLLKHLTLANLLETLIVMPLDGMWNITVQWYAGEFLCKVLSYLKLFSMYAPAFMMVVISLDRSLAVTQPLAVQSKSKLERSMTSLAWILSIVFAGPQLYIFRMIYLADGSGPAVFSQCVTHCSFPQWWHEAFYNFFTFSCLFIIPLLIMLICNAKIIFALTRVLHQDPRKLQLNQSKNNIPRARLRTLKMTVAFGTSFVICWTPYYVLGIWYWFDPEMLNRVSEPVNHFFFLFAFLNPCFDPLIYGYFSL
Experiment: in vitro LHRH antagonist potency (pA2) against the agonist leuprolide
Assay type: cell-based
Conditions: negative logarithm of the antagonist concentration which shifts the response curve produced by the agonist leuprolide to two-fold higher concentration
Procedure: Representative compounds of the present invention were evaluated in in vitro tests for receptor binding (pKI) and for LHRH antagonist potency (pA2). The tests employed the methods detailed in F. Haviv, et al., J. Med. Chem., 32: 2340-2344 (1989). The receptor binding affinities (pKI) are the negative logarithms of the equilibtirum dissociation constants (pA2) are the negative logarithms of the concentration of antagonist which shift the response curve roduced by the agonist leuprolide to two-fold higher concentration. (Leuprolide is the LHRH agonist having the structure 5-oxo-Pro^1 -His^2 -Trp^3 -Ser^4 -Tyr^5 -D-Leu^6 -Leu^7 -Arg^8 -Pro^9 -NHEt and is disclosed and claimed in U.S. Pat. No. 4,005,063.) Typically pA2 values of 9.5 or greater are indicative of good LHRH antagonist potency.

SMILES	Kb [nM]
CC(=O)N[C@H](Cc1ccc2ccccc2c1)C(=O)N[C@H](Cc1ccc(Cl)cc1)C(=O)N[C@H](Cc1cccnc1)C(=O)N[C@@H](CO)C(=O)N(C)[C@@H](Cc1ccc(O)cc1)C(=O)N[C@H](CCCCNC(=O)CNC(=O)c1cccnc1)C(=O)N[C@@H](CC(C)C)C(=O)N[C@@H](CCCCNC(C)C)C(=O)N1CCC[C@H]1C(=O)N[C@H](C)C(N)=O [Example 1, NAc-D2Nal^1 -D4ClPhe^2 -D3Pal^3 -Ser^4 -NMeTyr^5 -DLys(N-epsilon-Gly-Nicotinyl)^6 -Leu^7 -Lys(N-epsilon-Isopropyl)^8 -Pro^9 -DAla^10 NH2] (Ac-[d2Nal][dPhe(4-Cl)][d3Pal]S[NMeY][dK]([Gly-Nicotinoyl])L[Lys(iPr)]P[dA]-NH2)	0.00355
CC(=O)N[C@H](Cc1ccc2ccccc2c1)C(=O)N[C@H](Cc1ccc(Cl)cc1)C(=O)N[C@H](Cc1cccnc1)C(=O)N[C@@H](CO)C(=O)N(C)[C@@H](Cc1ccc(O)cc1)C(=O)N[C@H](CCCCNC(=O)NNC(=O)c1ccco1)C(=O)N[C@@H](CC(C)C)C(=O)N[C@@H](CCCCNC(C)C)C(=O)N1CCC[C@H]1C(=O)N[C@H](C)C(N)=O [Example 2, NAc-D2Nal^1 -D4ClPhe^2 -D3Pal^3 -Ser^4 -NMeTyr^5 -DLys(N-epsilon-Azagly-2-Furoyl)^6 -Leu^7 -Lys(N-epsilon-Isopropyl)^8 -Pro^9 -DAla^10 NH2] (Ac-[d2Nal][dPhe(4-Cl)][d3Pal]S[NMeY][dK]([azaGly-2Furoyl])L[Lys(iPr)]P[dA]-NH2)	0.00141
CC(=O)N[C@H](Cc1ccc2ccccc2c1)C(=O)N[C@H](Cc1ccc(Cl)cc1)C(=O)N[C@H](Cc1cccnc1)C(=O)N[C@@H](CO)C(=O)N(C)[C@@H](Cc1ccc(O)cc1)C(=O)N[C@H](CCCCNC(=O)NNC(=O)c1cccnc1)C(=O)N[C@@H](CC(C)C)C(=O)N[C@@H](CCCCNC(C)C)C(=O)N1CCC[C@H]1C(=O)N[C@H](C)C(N)=O [Example 3, NAc-D2Nal^1 -D4ClPhe^2 -D3Pal^3 -Ser^4 -NMeTyr^5 -DLys(N-epsilon-Azagly-Nicotinyl)^6 -Leu^7 -Lys(N-epsilon-Isopropyl)^8 -Pro^9 -DAla^10 NH2] (Ac-[d2Nal][dPhe(4-Cl)][d3Pal]S[NMeY][dK]([azaGly-Nicotinoyl])L[Lys(iPr)]P[dA]-NH2)	0.0049
CC(=O)N[C@H](Cc1ccc2ccccc2c1)C(=O)N[C@H](Cc1ccc(Cl)cc1)C(=O)N[C@H](Cc1cccnc1)C(=O)N[C@@H](CO)C(=O)N(C)[C@@H](Cc1ccc(O)cc1)C(=O)N[C@H](CCCCNC(=O)CCNC(=O)c1cccnc1)C(=O)N[C@@H](CC(C)C)C(=O)N[C@@H](CCCCNC(C)C)C(=O)N1CCC[C@H]1C(=O)N[C@H](C)C(N)=O [Example 4a] (Ac-[d2Nal][dPhe(4-Cl)][d3Pal]S[NMeY][dK]([βAla-Nicotinoyl])L[Lys(iPr)]P[dA]-NH2)	0.00562
CC(=O)N[C@H](Cc1ccc2ccccc2c1)C(=O)N[C@H](Cc1ccc(Cl)cc1)C(=O)N[C@H](Cc1cccnc1)C(=O)N[C@@H](CO)C(=O)N(C)[C@@H](Cc1ccc(O)cc1)C(=O)N[C@H](CCCCNC(=O)CCCNC(=O)c1cccnc1)C(=O)N[C@@H](CC(C)C)C(=O)N[C@@H](CCCCNC(C)C)C(=O)N1CCC[C@H]1C(=O)N[C@H](C)C(N)=O [Example 4b, NAc-D2Nal^1 -D4ClPhe^2 -D3Pal^3 -Ser^4 -NMeTyr^5 -DLys[N-epsilon-(gamma-Aminobutyryl)Nicotinyl]^6 -Leu^7 -Lys(N-epsilon-Isopropyl)^8 -Pro^9 -DAla^10 NH2] (Ac-[d2Nal][dPhe(4-Cl)][d3Pal]S[NMeY][dK]([GABA-Nicotinoyl])L[Lys(iPr)]P[dA]-NH2)	0.0234
CC(=O)N[C@H](Cc1ccc2ccccc2c1)C(=O)N[C@H](Cc1ccc(Cl)cc1)C(=O)N[C@H](Cc1cccnc1)C(=O)N[C@@H](CO)C(=O)N(C)[C@@H](Cc1ccc(O)cc1)C(=O)N[C@H](CCCCNC(=O)[C@@H](CO)NC(=O)c1cccnc1)C(=O)N[C@@H](CC(C)C)C(=O)N[C@@H](CCCCNC(C)C)C(=O)N1CCC[C@H]1C(=O)N[C@H](C)C(N)=O [Example 4c, NAc-D2Nal^1 -D4ClPhe^2 -D3Pal^3 -Ser^4 -NMeTyr^5 -DLys[N-epsilon-DSer-Nicotinyl]^6 -Leu^7 -Lys(N-epsilon-Isopropyl)^8 -Pro^9 -DAla^10 NH2] (Ac-[d2Nal][dPhe(4-Cl)][d3Pal]S[NMeY][dK]([dS-Nicotinoyl])L[Lys(iPr)]P[dA]-NH2)	0.0158
CC(=O)N[C@H](Cc1ccc2ccccc2c1)C(=O)N[C@H](Cc1ccc(Cl)cc1)C(=O)N[C@H](Cc1cccnc1)C(=O)N[C@@H](CO)C(=O)N(C)[C@@H](Cc1ccc(O)cc1)C(=O)N[C@H](CCCCNC(=O)CN(C)C(=O)c1cccnc1)C(=O)N[C@@H](CC(C)C)C(=O)N[C@@H](CCCCNC(C)C)C(=O)N1CCC[C@H]1C(=O)N[C@H](C)C(N)=O [Example 4d, NAc-D2Nal^1 -D4ClPhe^2 -D3Pal^3 -Ser^4 -NMeTyr^5 -DLys(N-epsilon-Sar-Nicotinyl)^6 -Leu^7 -Lys(N-epsilon-Isopropyl)^8 -Pro^9 -DAla^10 NH2] (Ac-[d2Nal][dPhe(4-Cl)][d3Pal]S[NMeY][dK]([Sar-Nicotinoyl])L[Lys(iPr)]P[dA]-NH2)	0.0138
CC(=O)N[C@H](Cc1ccc2ccccc2c1)C(=O)N[C@H](Cc1ccc(Cl)cc1)C(=O)N[C@H](Cc1cccnc1)C(=O)N[C@@H](CO)C(=O)N(C)[C@@H](Cc1ccc(O)cc1)C(=O)N[C@H](CCCCNC(=O)CCCCCNC(=O)c1cccnc1)C(=O)N[C@@H](CC(C)C)C(=O)N[C@@H](CCCCNC(C)C)C(=O)N1CCC[C@H]1C(=O)N[C@H](C)C(N)=O [Example 4e, NAc-D2Nal^1 -D4ClPhe^2 -D3Pal^3 -Ser^4 -NMeTyr^5 -DLys[N-epsilon-(N-epsilon-aminocaproyl)-Nicotinyl]^6 -Leu^7 -Lys(N-epsilon-Isopropyl)^8 -Pro^9 -DAla^10 NH2] (Ac-[d2Nal][dPhe(4-Cl)][d3Pal]S[NMeY][dK]([Ahx-Nicotinoyl])L[Lys(iPr)]P[dA]-NH2)	0.0339
CC(=O)N[C@H](Cc1ccc2ccccc2c1)C(=O)N[C@H](Cc1ccc(Cl)cc1)C(=O)N[C@H](Cc1cccnc1)C(=O)N[C@@H](CO)C(=O)N(C)[C@@H](Cc1ccc(O)cc1)C(=O)N[C@H](CCCCNC(=O)NNC(=O)C1CCCO1)C(=O)N[C@@H](CC(C)C)C(=O)N[C@@H](CCCCNC(C)C)C(=O)N1CCC[C@H]1C(=O)N[C@H](C)C(N)=O (stereo partly drawn) [Example 5a, NAc-D2Nal^1 -D4ClPhe^2 -D3Pal^3 -Ser^4 -NMeTyr^5 -DLys(N-epsilon-Azagly-2-Tetrahydrofuroyl)^6 -Leu^7 -Lys(N-epsilon-Isopropyl)^8 -Pro^9 -DAla^10 NH2] (Ac-[d2Nal][dPhe(4-Cl)][d3Pal]S[NMeY][dK]([azaGly-ξTetrahydrofuran2carbonyl])L[Lys(iPr)]P[dA]-NH2)	0.0191
CC(=O)N[C@H](Cc1ccc2ccccc2c1)C(=O)N[C@H](Cc1ccc(Cl)cc1)C(=O)N[C@H](Cc1cccnc1)C(=O)N[C@@H](CO)C(=O)N(C)[C@@H](Cc1ccc(O)cc1)C(=O)N[C@H](CCCCNC(=O)NNC(=O)c1cccs1)C(=O)N[C@@H](CC(C)C)C(=O)N[C@@H](CCCCNC(C)C)C(=O)N1CCC[C@H]1C(=O)N[C@H](C)C(N)=O [Example 5b, NAc-D2Nal^1 -D4ClPhe^2 -D3Pal^3 -Ser^4 -NMeTyr^5 -DLys(N-epsilon-Azagly-2-Thienylcarbonyl)^6 -Leu^7 -Lys(N-epsilon-Isopropyl)^8 -Pro^9 -DAla^10 NH2] (Ac-[d2Nal][dPhe(4-Cl)][d3Pal]S[NMeY][dK]([azaGly-Thiophene2carbonyl])L[Lys(iPr)]P[dA]-NH2)	0.00295
CC(=O)N[C@H](Cc1ccc2ccccc2c1)C(=O)N[C@H](Cc1ccc(Cl)cc1)C(=O)N[C@H](Cc1cccnc1)C(=O)N[C@@H](CO)C(=O)N(C)[C@@H](Cc1ccc(O)cc1)C(=O)N[C@H](CCCCNC(=O)NNC(=O)c1ccccc1O)C(=O)N[C@@H](CC(C)C)C(=O)N[C@@H](CCCCNC(C)C)C(=O)N1CCC[C@H]1C(=O)N[C@H](C)C(N)=O [Example 5c, NAc-D2Nal^1 -D4ClPhe^2 -D3Pal^3 -Ser^4 -NMeTyr^5 -DLys(N-epsilon-Azagly-Salicyl)^6 -Leu^7 -Lys(N-epsilon-Isopropyl)^8 -Pro^9 -DAla^10 NH2] (Ac-[d2Nal][dPhe(4-Cl)][d3Pal]S[NMeY][dK]([azaGly-Salicyloyl])L[Lys(iPr)]P[dA]-NH2)	0.0132
CC(=O)N[C@H](Cc1ccc2ccccc2c1)C(=O)N[C@H](Cc1ccc(Cl)cc1)C(=O)N[C@H](Cc1cccnc1)C(=O)N[C@@H](CO)C(=O)N(C)[C@@H](Cc1ccc(O)cc1)C(=O)N[C@H](CCCCNC(=O)NNC(=O)c1cc2ccccc2cc1O)C(=O)N[C@@H](CC(C)C)C(=O)N[C@@H](CCCCNC(C)C)C(=O)N1CCC[C@H]1C(=O)N[C@H](C)C(N)=O [Example 5d, NAc-D2Nal^1 -D4ClPhe^2 -D3Pal^3 -Ser^4 -NMeTyr^5 -DLys[N-epsilon-Azagly-(3-OH-2-Naphthoyl)]^6 -Leu^7 -Lys(N-epsilon-Isopropyl)^8 -Pro^9 -DAla^10 NH2] (Ac-[d2Nal][dPhe(4-Cl)][d3Pal]S[NMeY][dK]([azaGly-X1])L[Lys(iPr)]P[dA]-NH2)	0.055
